Reference: patent US10392368B2, “Pyrazolo and triazolo bicyclic compounds as JAK kinase inhibitors” (THERAVANCE BIOPHARMA R&D IP, LLC, priority 2017, dated 2019)

Legend:
[1] = Dynamic moisture sorption (DMS) assessment; assay type: physicochemical; conditions: 25° C.
Protocol: Dynamic moisture sorption (DMS) measurements were performed using a VTI atmospheric microbalance, SGA-100 system (VTI Corp., Hialeah, Fla. 33016). A weighed sample was used and the humidity was lowest possible value (close to 0% RH) at the start of the analysis. The DMS analysis consisted of an initial drying step (0% RH) for 120 minutes, followed by two cycles of sorption and desorption with a scan rate of 5% RH/step over the humidity range of 5% RH to 90% RH. The DMS run was performed isothermally at 25° C.

JAK1 = target: T1, JAK1 (Homo sapiens, UniProt P23458); assay: Biochemical JAK1 kinase assay (LanthaScreen); conditions: for Ki: read-out: JAK 1 (pKi) (converted)
T1 construct: GST; purchased Life Technologies
Method in brief: (§1)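 TR-FRET read-out: terbium anti-pSTAT1 (pTyr701) antibody, 2 nM, with 10 mM EDTA quench, emission ratio 520/495 nm. GST-JAK phosphorylates GFP-STAT1 peptide for 1 h at ambient temperature after 1 h compound pre-incubation. pIC50 from dose-response converted to pKi by Cheng-Prusoff.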

JAK2 = target: T2, JAK2 (Homo sapiens, UniProt O60674); assay: Biochemical JAK2 kinase assay (LanthaScreen); conditions: for Ki: read-out: JAK 2 (pKi) (converted)
T2 construct: GST; purchased Life Technologies
Method in brief: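 GST-tagged recombinant JAK2 pre-incubated 1 h at ambient temperature with compound and GFP-STAT1 peptide in HEPES pH 7.5/MgCl2 buffer, then ATP added for a 1 h reaction with 1% DMSO. TR-FRET read after EDTA and Tb-anti-pSTAT1 (pTyr701) addition; IC50 from 4-parameter fit, converted to pKi by Cheng-Prusoff.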

Tyk2 = target: T3, Tyk2 (Homo sapiens, UniProt P29597); assay: Biochemical Tyk2 kinase assay (LanthaScreen); conditions: for Ki: read-out: Tyk 2 (pKi) (converted)
T3 construct: GST; purchased Life Technologies
Method in brief: as §1

[2] = test system: IL-2 stimulated pSTAT5 in Tall-1 T cells; assay: Cellular JAK3 potency assay: inhibition of IL-2 stimulated pSTAT5 in Tall-1 T cells; assay type: cell-based, human; conditions: for IC50: Homo sapiens, TALL-1, IL-2 stimulated pSTAT5 in Tall-1 T cells, read-out: Tall-1 (pIC50) (converted)
Method in brief: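 Tall-1 human T cells (45,000/well) in phenol red-free DMEM with 10% FBS were preincubated with compound 1 h at 37 °C, then stimulated with IL-2 (final 300 ng/ml) for 30 min. Lysate pSTAT5 read by AlphaLisa; IC50 from inhibition curves, reported as pIC50 (mean±SD).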

[3] = test system: oxazolone-induced colitis; assay: Mouse model of oxazolone-induced colitis; assay type: in vivo
Protocol: Oxazolone-induced colitis is an experimental model that has a histological resemblance to human ulcerative colitis (Heller et al. Immunology, 2002, 17, 629-638). Adult BALB/C mice from Harlan were used in the assay. On day 1, animals were lightly anesthetized with isoflurane and the hairs between the shoulder were carefully removed before oxazolone (4%, 150 μL, 4:1 acetone:olive oil formulation) or vehicle solution was slowly applied for skin sensitization. Seven days after skin sensitization, the mice were fasted around 6 hours prior, anesthetized with ketamine/xylazine injection, and a 1 mL syringe equipped with a 3.5-F catheter, filled with oxazolone solution, was inserted carefully about 4 cm into the colon of the mouse. Following insertion, 50 μL of the oxazolone solution (0.8% in 1:1 ethanol:water formulation) was injected very slowly (over 30 sec using an injection pump) into the colon. Drug treatment (PO, QD or BID or TID) or vehicle was initiated a day prior to the oxazolone intrarectal (IR) challenge. Two-day post oxazolone intrarectal challenge, the disease was assessed by treatment-blinded experimenters for each mouse according to the criteria score: stool consistency score (0, normal; 2, loose; 4, diarrhea), gross bleeding score (0, absence; 2, blood tinged; 4, presence); Combined stool score endpoint=stool consistency score+stool blood score.
Select compounds were tested in the assay.

JAK3 = target: T4, JAK3 (Homo sapiens, UniProt P52333); assay: Biochemical JAK3 kinase assay (LanthaScreen); design: GST; purchased Life Technologies; conditions: for Ki: read-out: JAK 3 (pKi) (converted)
T4 sequence (P52333 1-1124): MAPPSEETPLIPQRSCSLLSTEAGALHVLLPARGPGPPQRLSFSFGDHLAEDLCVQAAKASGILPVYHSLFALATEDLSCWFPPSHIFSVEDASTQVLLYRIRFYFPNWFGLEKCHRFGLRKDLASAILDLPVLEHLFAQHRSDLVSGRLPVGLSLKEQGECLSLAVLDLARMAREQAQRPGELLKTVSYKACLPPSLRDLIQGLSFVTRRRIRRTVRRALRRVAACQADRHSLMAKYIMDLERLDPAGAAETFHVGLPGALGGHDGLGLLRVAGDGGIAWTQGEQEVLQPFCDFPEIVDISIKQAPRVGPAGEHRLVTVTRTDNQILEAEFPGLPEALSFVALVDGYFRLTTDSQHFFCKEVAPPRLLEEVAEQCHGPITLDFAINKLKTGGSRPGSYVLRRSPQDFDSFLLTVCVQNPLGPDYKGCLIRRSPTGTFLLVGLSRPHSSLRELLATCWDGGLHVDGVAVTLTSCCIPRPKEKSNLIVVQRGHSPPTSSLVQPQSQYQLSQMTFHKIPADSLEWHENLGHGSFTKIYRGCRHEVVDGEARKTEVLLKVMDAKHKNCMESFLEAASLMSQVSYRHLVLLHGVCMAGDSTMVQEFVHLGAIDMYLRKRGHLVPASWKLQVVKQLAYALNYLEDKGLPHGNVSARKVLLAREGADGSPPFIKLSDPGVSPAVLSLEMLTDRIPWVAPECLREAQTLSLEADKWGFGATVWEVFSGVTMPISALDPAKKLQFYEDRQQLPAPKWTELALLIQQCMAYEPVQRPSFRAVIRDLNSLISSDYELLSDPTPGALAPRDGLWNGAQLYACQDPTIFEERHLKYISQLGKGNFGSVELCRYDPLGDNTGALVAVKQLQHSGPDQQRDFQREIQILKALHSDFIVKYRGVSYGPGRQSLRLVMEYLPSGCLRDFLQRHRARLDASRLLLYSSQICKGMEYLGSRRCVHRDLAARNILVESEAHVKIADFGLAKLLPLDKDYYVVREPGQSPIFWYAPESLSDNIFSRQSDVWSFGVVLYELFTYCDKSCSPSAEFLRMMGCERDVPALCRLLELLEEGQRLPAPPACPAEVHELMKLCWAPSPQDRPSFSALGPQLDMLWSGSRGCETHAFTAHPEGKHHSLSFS
Method in brief: as §1

[4] = IL-2 stimulated pSTAT5 in Tall-1 T cells
[5] = selectivity: difference of pKi JAK3 and pKi JAK1
[6] = IL-2 stimulated pSTAT5, Tall-1 T cells
[7] = selectivity JAK3 over JAK1, difference of pKi

T3 sequence (P29597 whole entry): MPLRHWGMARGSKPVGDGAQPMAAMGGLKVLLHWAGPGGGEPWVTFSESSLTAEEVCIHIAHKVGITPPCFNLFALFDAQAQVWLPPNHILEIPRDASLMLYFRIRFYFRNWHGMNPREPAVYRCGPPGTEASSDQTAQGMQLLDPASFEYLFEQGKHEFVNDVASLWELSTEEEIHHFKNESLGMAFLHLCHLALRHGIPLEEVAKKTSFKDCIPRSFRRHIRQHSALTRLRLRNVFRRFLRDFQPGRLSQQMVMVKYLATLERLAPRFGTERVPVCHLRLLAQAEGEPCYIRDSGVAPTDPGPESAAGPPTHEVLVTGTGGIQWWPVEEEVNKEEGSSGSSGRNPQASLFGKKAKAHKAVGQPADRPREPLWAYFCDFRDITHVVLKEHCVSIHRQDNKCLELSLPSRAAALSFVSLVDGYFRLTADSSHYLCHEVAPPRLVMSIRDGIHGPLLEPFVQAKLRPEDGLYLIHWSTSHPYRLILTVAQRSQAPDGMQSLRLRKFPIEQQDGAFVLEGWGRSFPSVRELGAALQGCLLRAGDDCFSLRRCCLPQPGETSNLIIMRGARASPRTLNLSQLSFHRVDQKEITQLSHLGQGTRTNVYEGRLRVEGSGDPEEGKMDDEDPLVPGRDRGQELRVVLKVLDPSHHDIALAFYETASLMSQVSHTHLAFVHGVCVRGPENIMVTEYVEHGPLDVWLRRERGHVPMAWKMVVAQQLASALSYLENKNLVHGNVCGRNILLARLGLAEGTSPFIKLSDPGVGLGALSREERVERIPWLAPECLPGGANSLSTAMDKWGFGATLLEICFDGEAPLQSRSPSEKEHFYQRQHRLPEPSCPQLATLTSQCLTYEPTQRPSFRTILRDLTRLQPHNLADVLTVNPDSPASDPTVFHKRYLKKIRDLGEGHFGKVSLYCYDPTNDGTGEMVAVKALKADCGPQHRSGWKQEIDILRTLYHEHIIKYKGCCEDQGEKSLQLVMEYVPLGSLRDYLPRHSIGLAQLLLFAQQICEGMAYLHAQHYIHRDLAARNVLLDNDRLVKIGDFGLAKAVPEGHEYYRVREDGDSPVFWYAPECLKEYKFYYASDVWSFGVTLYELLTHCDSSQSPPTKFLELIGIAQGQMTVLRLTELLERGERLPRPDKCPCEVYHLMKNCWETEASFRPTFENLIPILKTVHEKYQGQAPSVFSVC
T2 sequence (O60674 whole entry): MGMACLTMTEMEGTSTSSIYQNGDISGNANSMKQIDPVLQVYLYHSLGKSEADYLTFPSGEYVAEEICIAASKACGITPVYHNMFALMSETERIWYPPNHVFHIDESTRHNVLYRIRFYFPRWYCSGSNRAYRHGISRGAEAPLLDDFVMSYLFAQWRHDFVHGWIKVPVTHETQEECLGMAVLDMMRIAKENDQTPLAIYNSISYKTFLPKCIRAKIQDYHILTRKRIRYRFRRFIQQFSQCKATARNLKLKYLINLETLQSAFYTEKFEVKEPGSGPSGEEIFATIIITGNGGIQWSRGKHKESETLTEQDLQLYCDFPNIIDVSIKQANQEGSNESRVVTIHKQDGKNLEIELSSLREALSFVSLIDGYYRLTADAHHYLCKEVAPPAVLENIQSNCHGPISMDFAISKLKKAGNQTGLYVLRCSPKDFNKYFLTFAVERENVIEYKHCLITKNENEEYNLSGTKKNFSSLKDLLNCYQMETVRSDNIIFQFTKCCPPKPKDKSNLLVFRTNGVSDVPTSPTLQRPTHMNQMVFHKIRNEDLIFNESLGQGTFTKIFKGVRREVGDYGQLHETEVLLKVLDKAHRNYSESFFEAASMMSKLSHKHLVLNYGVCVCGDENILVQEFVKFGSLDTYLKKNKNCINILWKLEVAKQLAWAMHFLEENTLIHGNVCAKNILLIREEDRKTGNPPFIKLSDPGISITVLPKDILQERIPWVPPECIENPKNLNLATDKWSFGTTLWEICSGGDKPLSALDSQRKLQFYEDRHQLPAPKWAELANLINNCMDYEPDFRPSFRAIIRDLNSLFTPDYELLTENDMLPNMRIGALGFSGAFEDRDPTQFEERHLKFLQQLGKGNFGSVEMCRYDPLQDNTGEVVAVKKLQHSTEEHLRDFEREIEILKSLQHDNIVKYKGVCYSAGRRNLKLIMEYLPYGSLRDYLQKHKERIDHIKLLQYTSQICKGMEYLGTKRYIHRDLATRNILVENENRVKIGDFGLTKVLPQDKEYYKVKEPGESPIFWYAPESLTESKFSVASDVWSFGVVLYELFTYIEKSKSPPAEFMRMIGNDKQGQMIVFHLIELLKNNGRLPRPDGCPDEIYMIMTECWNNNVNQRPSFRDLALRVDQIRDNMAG
T1 sequence (P23458 whole entry): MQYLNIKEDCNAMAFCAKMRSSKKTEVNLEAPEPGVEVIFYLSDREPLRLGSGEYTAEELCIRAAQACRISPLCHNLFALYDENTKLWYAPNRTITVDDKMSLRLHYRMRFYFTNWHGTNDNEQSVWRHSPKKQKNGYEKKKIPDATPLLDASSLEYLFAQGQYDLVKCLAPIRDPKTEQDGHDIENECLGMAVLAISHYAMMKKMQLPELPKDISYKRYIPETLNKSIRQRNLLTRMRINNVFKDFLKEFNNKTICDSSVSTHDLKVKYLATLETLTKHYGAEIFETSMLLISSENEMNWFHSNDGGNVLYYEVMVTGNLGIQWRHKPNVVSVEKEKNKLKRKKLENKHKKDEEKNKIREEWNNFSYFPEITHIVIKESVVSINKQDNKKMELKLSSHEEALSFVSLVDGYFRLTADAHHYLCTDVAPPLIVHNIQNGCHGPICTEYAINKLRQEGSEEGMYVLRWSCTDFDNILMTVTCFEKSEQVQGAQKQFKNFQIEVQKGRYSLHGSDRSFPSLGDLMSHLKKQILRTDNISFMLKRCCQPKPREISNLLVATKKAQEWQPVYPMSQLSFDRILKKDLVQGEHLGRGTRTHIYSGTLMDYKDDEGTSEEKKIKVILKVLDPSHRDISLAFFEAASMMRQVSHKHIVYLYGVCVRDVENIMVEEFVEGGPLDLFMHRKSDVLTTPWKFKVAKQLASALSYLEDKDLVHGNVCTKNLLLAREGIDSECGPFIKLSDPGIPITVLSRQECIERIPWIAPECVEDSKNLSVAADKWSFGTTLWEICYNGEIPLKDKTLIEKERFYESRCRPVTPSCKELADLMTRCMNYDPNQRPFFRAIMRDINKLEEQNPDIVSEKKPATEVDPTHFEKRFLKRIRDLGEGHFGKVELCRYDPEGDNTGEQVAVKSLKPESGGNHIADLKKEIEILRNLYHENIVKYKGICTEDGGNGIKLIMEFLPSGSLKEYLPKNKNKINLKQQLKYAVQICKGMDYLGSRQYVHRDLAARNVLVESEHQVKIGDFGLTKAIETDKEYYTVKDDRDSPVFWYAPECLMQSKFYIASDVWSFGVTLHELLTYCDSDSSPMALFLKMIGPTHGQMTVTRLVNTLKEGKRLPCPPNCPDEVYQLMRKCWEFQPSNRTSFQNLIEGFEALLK

| SMILES | hygroscopicity ([1]; DMS, 5% to 90% relative humidity) | weight gain (moisture uptake) ([1]; humidity range of 5% to 90% relative humidity) | JAK 1 (pKi) (JAK1) | JAK 2 (pKi) (JAK2) | Tyk 2 (pKi) (Tyk2) | Tall-1 (pIC50) [2, 4] | combined stool score endpoint as compared with vehicle treated animals ([3]; 3 mg/kg (PO, BID)) | JAK 3 (pKi) (JAK3) | JAK3 (pKi)-JAK1 (pKi) (JAK3; [5]) | Ki (JAK1) | Ki (JAK2) | Ki (Tyk2) | IC50 [2] | Ki (JAK3) | Tall-1 (pIC50) [2, 6] | JAK3 (pKi)-JAK1 (pKi) (JAK3; [7]) | combined stool score endpoint as compared with vehicle treated animals ([3]; 1 and 10 mg/kg only (PO, BID)) |
| --- | --- | --- | --- | --- | --- | --- | --- | --- | --- | --- | --- | --- | --- | --- | --- | --- | --- |
| CN(C)C/C=C/C(=O)N1CC(COc2cc(-c3ccc(O)cc3)cc3[nH]ncc23)C1 [Form 3, (E)-4-(dimethylamino)-1-(3-(((6-(4-hydroxyphenyl)-1H-indazol-4-yl)oxy)methyl)azetidin-1-yl)but-2-en-1-one] | non-hygroscopic | about 0.33% | – | – | – | – | – | – | – | – | – | – | – | – | – | – | – |
| CN(C)C/C=C/C(=O)N1CC(C)(COc2cc(-c3ccc(O)c(F)c3)cc3[nH]ncc23)C1 [Compound 3-11] | – | – | E (a pKi value of 7 or below (Ki of 100 nM or above)) | D (a pKi value between 7 and 8 (Ki between 100 nM and 10 nM)) | E (a pKi value of 7 or below (Ki of 100 nM or above)) | B (a pIC50 value between 6.7 (included) and 7.5 (IC50 between 200 nM and 32 nM)) | statistically significant decrease | A (a pKi value≥10 (Ki≤0.1 nM)) | A (a value of 3 or above) | – | – | – | – | – | – | – | – |
| CN(C)C/C=C/C(=O)N1CC(COc2nc(-c3ccc(O)c(Cl)c3)cc3[nH]ncc23)C1 [Compound 3-34] | – | – | E (a pKi value of 7 or below (Ki of 100 nM or above)) | E (a pKi value of 7 or below (Ki of 100 nM or above)) | E (a pKi value of 7 or below (Ki of 100 nM or above)) | B (a pIC50 value between 6.7 (included) and 7.5 (IC50 between 200 nM and 32 nM)) | statistically significant decrease | A (a pKi value≥10 (Ki≤0.1 nM)) | A (a value of 3 or above) | – | – | – | – | – | – | – | – |
| COC1(COc2cc(-c3ccc(O)c(Cl)c3)cc3[nH]ncc23)CN(C(=O)/C=C/CN(C)C)C1 [Compound 3-72] | – | – | – | – | – | – | statistically significant decrease | – | A (a value of 3 or above) | > 100 nM | > 100 nM | > 100 nM | < 31.6 nM | 0.1 to 1 nM | – | – | – |
| C=CC(=O)N1CC2(CC(Oc3cc(-c4ccc(O)c(Cl)c4)cc4[nH]ncc34)C2)C1 [Compound 15-1] | – | – | E (a pKi value of 7 or below (Ki of 100 nM or above)) | E (a pKi value of 7 or below (Ki of 100 nM or above)) | E (a pKi value of 7 or below (Ki of 100 nM or above)) | – | statistically significant decrease | B (a pKi value between 9 and 10 (Ki between 1 nM and 0.1 nM)) | – | – | – | – | – | – | A (a pIC50 value≥7.5 (IC50≤32 nM)) | A (a value of 3 or above) | – |
| C=CC(=O)N1CC(C)(COc2nc(-c3ccc(O)cc3)nc3[nH]ncc23)C1 [Compound 3-57] | – | – | E (a pKi value of 7 or below (Ki of 100 nM or above)) | E (a pKi value of 7 or below (Ki of 100 nM or above)) | E (a pKi value of 7 or below (Ki of 100 nM or above)) | B (a pIC50 value between 6.7 (included) and 7.5 (IC50 between 200 nM and 32 nM)) | statistically significant decrease | A (a pKi value≥10 (Ki≤0.1 nM)) | A (a value of 3 or above) | – | – | – | – | – | – | – | – |
| C=CC(=O)N1CC2(CC(Oc3nc(-c4ccc(O)cc4)nc4[nH]ncc34)C2)C1 [Compound 15-3] | – | – | E (a pKi value of 7 or below (Ki of 100 nM or above)) | E (a pKi value of 7 or below (Ki of 100 nM or above)) | E (a pKi value of 7 or below (Ki of 100 nM or above)) | – | statistically significant decrease | A (a pKi value≥10 (Ki≤0.1 nM)) | – | – | – | – | – | – | A (a pIC50 value≥7.5 (IC50≤32 nM)) | A (a value of 3 or above) | – |
| COC1(COc2cc(-c3ccc(O)c(F)c3)cc3[nH]ncc23)CN(C(=O)/C=C/CN(C)C)C1 [Compound 3-74] | – | – | – | – | – | – | – | – | A (a value of 3 or above) | > 100 nM | > 100 nM | > 100 nM | < 31.6 nM | < 0.1 nM | – | – | statistically significant decrease |
| C=CC(=O)N1CC(C(C)(C)Oc2cc(-c3ccc(O)c(F)c3)nc3[nH]ncc23)C1 [Compound 3-81] | – | – | E (a pKi value of 7 or below (Ki of 100 nM or above)) | E (a pKi value of 7 or below (Ki of 100 nM or above)) | E (a pKi value of 7 or below (Ki of 100 nM or above)) | A (a pIC50 value≥7.5 (IC50≤32 nM)) | statistically significant decrease | A (a pKi value≥10 (Ki≤0.1 nM)) | A (a value of 3 or above) | – | – | – | – | – | – | – | – |
